# Counter-ions that a name gives are not always drawn. Like-named read-outs stand apart in the source and are kept apart here.
# Columns and labels:
# Chk-1 kinase = Chk-1 kinase (Homo sapiens (Human), UniProt O14757); test: Chk-1 Kinase Inhibiting Activity (33P-ATP filter assay, CHKtide substrate); assay type: biochemical
# Procedure, shortened: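 Full-length N-terminal GST-tagged human Chk-1 from insect cells, 0.5 nM final, with 20 μM peptide substrate and 33P-ATP in HEPES pH 7.5 buffer with 1% DMSO. Reaction ran 120 minutes at room temperature; incorporated radioactivity captured on P81 filters and counted for IC50.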
# MIA PaCa-2 cells = test: Gemcitabine Combination Cell Assay (Cell Titer Glo); assay type: cell-based; conditions: for IC50: Homo sapiens; for 10xLS: approximate concentration of Chk1 inhibitor that results in a 10-fold reduction in the IC50 of gemcitabine alone; for 2xLS: approximate concentration of Chk1 inhibitor that results in a two-fold reduction in the IC50 of gemcitabine alone
# Procedure, shortened: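 MIA PaCa-2 cells were treated 72 h with half-log dilutions of Chk1 inhibitor (top 3000 nM) and gemcitabine (top 100 nM), alone and in full matrix; viability by CellTiter-Glo luminescence. IC50s from four-parameter fit; Chk1 inhibitor concentrations giving two- and ten-fold lowering of gemcitabine IC50 were estimated.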
# [1] = against Chk-1 kinase, read-out: IC50
# [2] = Chk1 inhibitor alone, MIA PaCa-2 cells, 72 h, read-out: Chk1 IC50
# [3] = MIA PaCa-2, 72 h, read-out: Chk1 IC50 (nM)
# Chk-1 kinase, sequence (O14757 whole entry): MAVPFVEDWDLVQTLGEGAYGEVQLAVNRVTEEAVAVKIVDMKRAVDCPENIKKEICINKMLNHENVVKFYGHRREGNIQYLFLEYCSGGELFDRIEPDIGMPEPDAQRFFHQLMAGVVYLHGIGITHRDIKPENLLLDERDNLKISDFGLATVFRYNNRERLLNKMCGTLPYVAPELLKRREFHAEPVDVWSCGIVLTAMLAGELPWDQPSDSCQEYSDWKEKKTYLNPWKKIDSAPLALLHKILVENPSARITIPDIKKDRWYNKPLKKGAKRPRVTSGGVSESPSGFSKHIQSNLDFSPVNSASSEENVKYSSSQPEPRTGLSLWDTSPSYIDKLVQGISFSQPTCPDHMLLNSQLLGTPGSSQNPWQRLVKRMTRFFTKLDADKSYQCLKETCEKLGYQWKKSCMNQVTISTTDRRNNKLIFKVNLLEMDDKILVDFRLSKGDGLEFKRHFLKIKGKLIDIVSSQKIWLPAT
compound,measurement,setting,value
"COc1cc(C2CCN(C(C)C)CC2F)ccc1-c1cc(Nc2cnc(C#N)cn2)n[nH]1 (stereo not shown) [Example 88, 5-[[5-[4-(3-fluoro-1-isopropyl-4-piperidyl)-2-methoxy-phenyl]-1H-pyrazol-3-yl]amino]pyrazine-2-carbonitrile]",IC50,Chk-1 kinase; [1],0.079 nM
same,IC50,MIA PaCa-2 cells; [2],424 nM
same,10xLS,"MIA PaCa-2 cells; MIA PaCa-2 cells, 72 h",300 nM
same,2xLS,"MIA PaCa-2 cells; MIA PaCa-2 cells, 72 h",10 nM
"COc1cc(C2CCN(C)CC2)ccc1-c1cc(Nc2ccc(C#N)cn2)n[nH]1 [Example 25, 6-[[5-[2-methoxy-4-(1-methyl-4-piperidyl)phenyl]-1H-pyrazol-3-yl]amino]pyridine-3-carbonitrile]",IC50,Chk-1 kinase; [1],14 nM
same,IC50,MIA PaCa-2 cells; [2],> 3000 nM
same,10xLS,"MIA PaCa-2 cells; MIA PaCa-2 cells, 72 h",>3000 nM
same,2xLS,"MIA PaCa-2 cells; MIA PaCa-2 cells, 72 h",300 nM
"COc1cc(CN(C)C2CCOCC2)ccc1-c1cc(Nc2cnc(C#N)cn2)n[nH]1 [Example 63, 5-[[5-[2-methoxy-4-[[methyl(tetra hydropyran-4-yl)amino]methyl]phenyl]-1H-pyrazol-3-yl]amino]pyrazine-2-carbonitrile]",IC50,Chk-1 kinase; [1],0.052 nM
same,IC50,MIA PaCa-2 cells; [2],600 nM
same,10xLS,"MIA PaCa-2 cells; MIA PaCa-2 cells, 72 h",100 nM
same,2xLS,"MIA PaCa-2 cells; MIA PaCa-2 cells, 72 h",<3 nM
"COc1cc(NCC2CCN(C(C)C)CC2)ccc1-c1cc(Nc2cnc(C#N)cn2)n[nH]1 [Example 109, 5-[[5-[4-[(1-isopropyl-4-piperidyl)methylamino]-2-methoxy-phenyl]-1H-pyrazol-3-yl]amino]pyrazine-2-carbonitrile]",IC50,Chk-1 kinase; [1],0.087 nM
same,IC50,MIA PaCa-2 cells; [2],82 nM
same,10xLS,"MIA PaCa-2 cells; MIA PaCa-2 cells, 72 h",<30 nM
same,2xLS,"MIA PaCa-2 cells; MIA PaCa-2 cells, 72 h",<3 nM
"COc1cc(NC2CCN(C(C)C)CC2)ccc1-c1cc(Nc2cnc(C#N)cn2)n[nH]1 [Example 112, 5-[[5-[4-[(1-isopropyl-4-piperidyl)amino]-2-methoxy-phenyl]-1H-pyrazol-3-yl]amino]pyrazine-2-carbonitrile]",IC50,Chk-1 kinase; [1],0.0042 nM
same,IC50,MIA PaCa-2 cells; [2],253 nM
same,10xLS,"MIA PaCa-2 cells; MIA PaCa-2 cells, 72 h",100 nM
same,2xLS,"MIA PaCa-2 cells; MIA PaCa-2 cells, 72 h",<3 nM
"COc1cc(C2CCN(C)CC2(F)F)ccc1-c1cc(Nc2cnc(C#N)cn2)n[nH]1 (stereo not shown) [Example 97, 5-[[5-[4-(3,3-Difluoro-1-methyl-4-piperidyl)-2-methoxy-phenyl]-1H-pyrazol-3-yl]amino]pyrazine-2-carbonitrile hydrochloride]",IC50,Chk-1 kinase; [1],1.1 nM
same,IC50,MIA PaCa-2 cells; [3],1500 nM
same,10xLS,"MIA PaCa-2 cells; MIA PaCa-2 cells, 72 h",300 nM
same,2xLS,"MIA PaCa-2 cells; MIA PaCa-2 cells, 72 h",10 nM
"CCN1CCC(c2ccc(-c3cc(Nc4cnc(C#N)cn4)n[nH]3)c(OC)c2)C(F)(F)C1 (stereo not shown) [Example 98, 5-[[5-[4-(1-ethyl-3,3-difluoro-4-piperidyl)-2-methoxy-phenyl]-1H-pyrazol-3-yl]amino]pyrazine-2-carbonitrile]",IC50,Chk-1 kinase; [1],1.8 nM
same,IC50,MIA PaCa-2 cells; [2],1780 nM
same,10xLS,"MIA PaCa-2 cells; MIA PaCa-2 cells, 72 h",<1000 nM
same,2xLS,"MIA PaCa-2 cells; MIA PaCa-2 cells, 72 h",10 nM
"COc1cc(C2CCN(C)CC2)ccc1-c1cc(Nc2cnc(C#N)cn2)n[nH]1 [Example 11, 5-{5-[2-Methoxy-4-(1-methyl-piperidin-4-yl)-phenyl]-1H-pyrazol-3-ylamino}-pyrazine-2-carbonitrile hydrochloride]",IC50,Chk-1 kinase; [1],0.048 nM
same,IC50,MIA PaCa-2 cells; [3],214 nM
same,10xLS,"MIA PaCa-2 cells; MIA PaCa-2 cells, 72 h",<100 nM
same,2xLS,"MIA PaCa-2 cells; MIA PaCa-2 cells, 72 h",3 nM
"COc1cc(N2CCN(C)CC2)cc(OC)c1-c1cc(Nc2cnc(C#N)cn2)n[nH]1 [Example 122, 5-[[5-[2,6-dimethoxy-4-(4-methylpiperazin-1-yl)phenyl]-1H-pyrazol-3-yl]amino]pyrazine-2-carbonitrile]",IC50,Chk-1 kinase; [1],0.14 nM
same,IC50,MIA PaCa-2 cells; [2],136 nM
same,10xLS,"MIA PaCa-2 cells; MIA PaCa-2 cells, 72 h",<100 nM
same,2xLS,"MIA PaCa-2 cells; MIA PaCa-2 cells, 72 h",3 nM
"COc1cc(CNCc2ccccc2)ccc1-c1cc(Nc2cnc(C#N)cn2)n[nH]1 [Example 3, 5-{5-[4-(Benzylamino-methyl)-2-methoxy-phenyl]-1H-pyrazol-3-ylamino}-pyrazine-2-carbonitrile hydrochloride]",IC50,Chk-1 kinase; [1],0.21 nM
same,IC50,MIA PaCa-2 cells; [3],275 nM
same,10xLS,"MIA PaCa-2 cells; MIA PaCa-2 cells, 72 h",100 nM
same,2xLS,"MIA PaCa-2 cells; MIA PaCa-2 cells, 72 h",10 nM
"COc1cc(OCC2CCCN2)ccc1-c1cc(Nc2cnc(C#N)cn2)n[nH]1 (stereo not shown) [Example 34, 5-[[5-[2-methoxy-4-(pyrrolidin-2-ylmethoxy)phenyl]-1H-pyrazol-3-yl]amino]pyrazine-2-carbonitrile]",IC50,Chk-1 kinase; [1],0.14 nM
same,IC50,MIA PaCa-2 cells; [2],183 nM
same,10xLS,"MIA PaCa-2 cells; MIA PaCa-2 cells, 72 h",100 nM
same,2xLS,"MIA PaCa-2 cells; MIA PaCa-2 cells, 72 h",3 nM
"CC(C)Oc1cc(C2CCN(C)CC2)ccc1-c1cc(Nc2cnc(C#N)cn2)n[nH]1 [Example 38, 5-[[5-[2-isopropoxy-4-(1-methyl-4-piperidyl)phenyl]-1H-pyrazol-3-yl]amino]pyrazine-2-carbonitrile]",IC50,Chk-1 kinase; [1],0.88 nM
same,IC50,MIA PaCa-2 cells; [2],2750 nM
same,10xLS,"MIA PaCa-2 cells; MIA PaCa-2 cells, 72 h",1000 nM
same,2xLS,"MIA PaCa-2 cells; MIA PaCa-2 cells, 72 h",100 nM
"COc1cc(N2CCN(C(C)C)CC2)ccc1-c1cc(Nc2cnc(C#N)cn2)n[nH]1 [Example 81, 5-[[5-[4-(4-isopropylpiperazin-1-yl)-2-methoxy-phenyl]-1H-pyrazol-3-yl]amino]pyrazine-2-carbonitrile]",IC50,Chk-1 kinase; [1],0.15 nM
same,IC50,MIA PaCa-2 cells; [2],36 nM
same,10xLS,"MIA PaCa-2 cells; MIA PaCa-2 cells, 72 h",<30 nM
same,2xLS,"MIA PaCa-2 cells; MIA PaCa-2 cells, 72 h",<3 nM
"COc1cc(N2CCOCC2)ccc1-c1cc(Nc2cnc(C#N)cn2)n[nH]1 [Example 79, 5-[[5-(2-methoxy-4-morpholino-phenyl)-1H-pyrazol-3-yl]amino]pyrazine-2-carbonitrile]",IC50,Chk-1 kinase; [1],0.4 nM
same,IC50,MIA PaCa-2 cells; [2],478 nM
same,10xLS,"MIA PaCa-2 cells; MIA PaCa-2 cells, 72 h",100 nM
same,2xLS,"MIA PaCa-2 cells; MIA PaCa-2 cells, 72 h",3 nM
"COc1cc(CNCc2ccc(F)cc2)ccc1-c1cc(Nc2cnc(C#N)cn2)n[nH]1 [Example 8, 5-(5-{4-[(4-fluoro-benzylamino)-methyl]-2-methoxy-phenyl}-1H-pyrazol-3-ylamino)-pyrazine-2-carbonitrile]",IC50,Chk-1 kinase; [1],0.058 nM
same,IC50,MIA PaCa-2 cells; [2],259 nM
same,10xLS,"MIA PaCa-2 cells; MIA PaCa-2 cells, 72 h",~200 nM
same,2xLS,"MIA PaCa-2 cells; MIA PaCa-2 cells, 72 h",10 nM
N#Cc1cnc(Nc2cc(-c3ccc(N4CCNCC4)cc3OC(F)(F)F)[nH]n2)cn1 [Example 153],IC50,Chk-1 kinase,3.8 nM
same,IC50,MIA PaCa-2 cells; [2],1200 nM
same,10xLS,"MIA PaCa-2 cells; MIA PaCa-2 cells, 72 h",1000 nM
same,2xLS,"MIA PaCa-2 cells; MIA PaCa-2 cells, 72 h",100 nM
"COc1cc(C2(F)CCNCC2)ccc1-c1cc(Nc2cnc(C#N)cn2)n[nH]1 [Example 76, 5-[[5-[4-(4-fluoro-4-piperidyl)-2-methoxy-phenyl]-1H-pyrazol-3-yl]amino]pyrazine-2-carbonitrile]",IC50,Chk-1 kinase; [1],0.11 nM
same,IC50,MIA PaCa-2 cells; [2],482 nM
same,10xLS,"MIA PaCa-2 cells; MIA PaCa-2 cells, 72 h",300 nM
same,2xLS,"MIA PaCa-2 cells; MIA PaCa-2 cells, 72 h",10 nM
"COc1cc(CN2CC[C@@H](F)C2)ccc1-c1cc(Nc2cnc(C#N)cn2)n[nH]1 [Example 123, 5-[[5-[4-[[(3R)-3-fluoropyrrolidin-1-yl]methyl]-2-methoxy-phenyl]-1H-pyrazol-3-yl]amino]pyrazine-2-carbonitrile hydrochloride]",IC50,Chk-1 kinase; [1],0.16 nM
same,IC50,MIA PaCa-2 cells; [3],440 nM
same,10xLS,"MIA PaCa-2 cells; MIA PaCa-2 cells, 72 h",<300 nM
same,2xLS,"MIA PaCa-2 cells; MIA PaCa-2 cells, 72 h",3 nM
"COc1cc(OCC2CCNCC2)ccc1-c1cc(Nc2cnc(C#N)cn2)n[nH]1 [Example 36, 5-[[5-[2-methoxy-4-(4-piperidylmethoxy)phenyl]-1H-pyrazol-3-yl]amino]pyrazine-2-carbonitrile]",IC50,Chk-1 kinase; [1],0.095 nM
same,IC50,MIA PaCa-2 cells; [2],281 nM
same,10xLS,"MIA PaCa-2 cells; MIA PaCa-2 cells, 72 h",100 nM
same,2xLS,"MIA PaCa-2 cells; MIA PaCa-2 cells, 72 h",3 nM
"CCN1CCC[C@@H]1COc1ccc(-c2cc(Nc3cnc(C#N)cn3)n[nH]2)c(OC)c1 [Example 126, 5-[[5-[4-[[(2R)-1-ethylpyrrolidin-2-yl]methoxy]-2-methoxy-phenyl]-1H-pyrazol-3-yl]amino]pyrazine-2-carbonitrile]",IC50,Chk-1 kinase; [1],0.056 nM
same,IC50,MIA PaCa-2 cells; [2],210 nM
same,10xLS,"MIA PaCa-2 cells; MIA PaCa-2 cells, 72 h",<100 nM
same,2xLS,"MIA PaCa-2 cells; MIA PaCa-2 cells, 72 h",3 nM
"COc1cc(NCc2ccccc2)cc(OC)c1-c1cc(Nc2cnc(C#N)cn2)n[nH]1 [Example 1, 5-[5-(4-Benzylamino-2,6-dimethoxy-phenyl)-1H-pyrazol-3-ylamino]-pyrazine-2-carbonitrile]",IC50,Chk-1 kinase; [1],2.8 nM
same,IC50,MIA PaCa-2 cells; [2],5390 nM
same,10xLS,"MIA PaCa-2 cells; MIA PaCa-2 cells, 72 h",1000 nM
same,2xLS,"MIA PaCa-2 cells; MIA PaCa-2 cells, 72 h",100 nM
"COc1cc(CN[C@@H]2CCOC2)ccc1-c1cc(Nc2cnc(C#N)cn2)n[nH]1 [Example 131, 5-[[5-[2-methoxy-4-[[[(3R)-tetrahydrofuran-3-yl]amino]methyl]phenyl]-1H-pyrazol-3-yl]amino]pyrazine-2-carbonitrile]",IC50,Chk-1 kinase; [1],0.1 nM
same,IC50,MIA PaCa-2 cells; [2],592 nM
same,10xLS,"MIA PaCa-2 cells; MIA PaCa-2 cells, 72 h",100 nM
same,2xLS,"MIA PaCa-2 cells; MIA PaCa-2 cells, 72 h",3 nM

# Source: patent publication US10010547B2 (CASCADIAN THERAPEUTICS, INC., priority 2014, dated 2018)
